Species on record: Rattus norvegicus
Experiment: Open TG-GATES - Regimen: Daily Repeat
Assay type: toxicity, organism-based, Sprague-Dawley
Set-up: regimen Daily Repeat, gender Male, age 6 weeks
Conditions: in vivo, po, 300 mg/kg, route gavage, dose level High; for APTT / Bas / Eos / Fbg / Hb / Ht / Lym / MCH / MCHC / MCV / Mono / Neu / PT / Plat / RBC / Ret / WBC: tissue Blood; for KIDNEY_L / KIDNEY_R / KIDNEY_TOTAL: tissue Kidney; for LIVER: tissue Liver; for A/G / ALP / ALT / AST / BUN / CRE / Ca / Cl / DBIL / GLC / IP / K / LDH / Na / PL / RALB / TBIL / TC / TG / TP / gamma-GTP: tissue Plasma

ClC(Cl)(Cl)Cl [CARBON TETRACHLORIDE]
TERMINAL_BW (72 h, time 3 day): 213 g | APTT (72 h, time 3 day): 21.4 s | Bas (72 h, time 3 day): 0% | Eos (72 h, time 3 day): 1% | Fbg (72 h, time 3 day): 217 mg/dL | Hb (72 h, time 3 day): 14.1 g/dL | Ht (72 h, time 3 day): 41.3% | Lym (72 h, time 3 day): 73% | MCH (72 h, time 3 day): 21.6 pg | MCHC (72 h, time 3 day): 34.1% | MCV (72 h, time 3 day): 63.2 fL | Mono (72 h, time 3 day): 4% | Neu (72 h, time 3 day): 20.4% | PT (72 h, time 3 day): 13.5 s | Plat (72 h, time 3 day): 114.2 x10_4/uL | RBC (72 h, time 3 day): 655 x10_4/ul | Ret (72 h, time 3 day): 5.5% | WBC (72 h, time 3 day): 96.3 x10_2/uL | KIDNEY_L (72 h, time 3 day): 1 g | KIDNEY_R (72 h, time 3 day): 1 g | KIDNEY_TOTAL (72 h, time 3 day): 1.9 g | LIVER (72 h, time 3 day): 11.1 g | A/G (72 h, time 3 day): 1.5 | ALP (72 h, time 3 day): 1664.6 IU/L | ALT (72 h, time 3 day): 124.8 IU/L | AST (72 h, time 3 day): 283.8 IU/L | BUN (72 h, time 3 day): 14.6 mg/dL | CRE (72 h, time 3 day): 0.4 mg/dL | Ca (72 h, time 3 day): 10.7 mg/dL | Cl (72 h, time 3 day): 103.8 meq/L | DBIL (72 h, time 3 day): 0.068 mg/dL | GLC (72 h, time 3 day): 178.4 mg/dL | IP (72 h, time 3 day): 7.3 mg/dL | K (72 h, time 3 day): 3.8 meq/L | LDH (72 h, time 3 day): 355.2 IU/L | Na (72 h, time 3 day): 140.4 meq/L | PL (72 h, time 3 day): 116.4 mg/dL | RALB (72 h, time 3 day): 3.1 g/dL | TBIL (72 h, time 3 day): 0.1 mg/dL | TC (72 h, time 3 day): 49.8 mg/dL | TG (72 h, time 3 day): 28.6 mg/dL | TP (72 h, time 3 day): 5.3 g/dL | gamma-GTP (72 h, time 3 day): 1.2 IU/L | TERMINAL_BW ([…], time 7 day): 248.2 g | TERMINAL_BW ([…], time 14 day): 287.9 g | TERMINAL_BW ([…], time 28 day): 367.6 g | APTT ([…], time 7 day): 20.7 s | Bas ([…], time 7 day): 0% | Eos ([…], time 7 day): 1% | Fbg ([…], time 7 day): 230.4 mg/dL | Hb ([…], time 7 day): 13.5 g/dL | Ht ([…], time 7 day): 39.2% | Lym ([…], time 7 day): 78.8% | MCH ([…], time 7 day): 21.4 pg | MCHC ([…], time 7 day): 34.4% | MCV ([…], time 7 day): 62.3 fL | Mono ([…], time 7 day): 3.6% | Neu ([…], time 7 day): 16.2% | PT ([…], time 7 day): 12.4 s | Plat ([…], time 7 day): 106.7 x10_4/uL | RBC ([…], time 7 day): 629.6 x10_4/ul | Ret ([…], time 7 day): 6% | WBC ([…], time 7 day): 130.8 x10_2/uL | APTT ([…], time 14 day): 23 s | Bas ([…], time 14 day): 0% | Eos ([…], time 14 day): 1% | Fbg ([…], time 14 day): 211.6 mg/dL | Hb ([…], time 14 day): 14.2 g/dL | Ht ([…], time 14 day): 42.3% | Lym ([…], time 14 day): 81.4% | MCH ([…], time 14 day): 19.1 pg | MCHC ([…], time 14 day): 33.7% | MCV ([…], time 14 day): 56.9 fL | Mono ([…], time 14 day): 3% | Neu ([…], time 14 day): 14.2% | PT ([…], time 14 day): 12.6 s | Plat ([…], time 14 day): 101.2 x10_4/uL | RBC ([…], time 14 day): 744.4 x10_4/ul | Ret ([…], time 14 day): 3.5% | WBC ([…], time 14 day): 113.3 x10_2/uL | APTT ([…], time 28 day): 25.3 s | Bas ([…], time 28 day): 0% | Eos ([…], time 28 day): 1% | Fbg ([…], time 28 day): 198.8 mg/dL | Hb ([…], time 28 day): 14.5 g/dL | Ht ([…], time 28 day): 43.1% | Lym ([…], time 28 day): 82.4% | MCH ([…], time 28 day): 17.9 pg | MCHC ([…], time 28 day): 33.6% | MCV ([…], time 28 day): 53.1 fL | Mono ([…], time 28 day): 3.4% | Neu ([…], time 28 day): 13.2% | PT ([…], time 28 day): 13.7 s | Plat ([…], time 28 day): 99.7 x10_4/uL | RBC ([…], time 28 day): 811.4 x10_4/ul | Ret ([…], time 28 day): 2.3% | WBC ([…], time 28 day): 151.6 x10_2/uL | KIDNEY_L ([…], time 7 day): 1.1 g | KIDNEY_R ([…], time 7 day): 1.1 g | KIDNEY_TOTAL ([…], time 7 day): 2.2 g | KIDNEY_L ([…], time 14 day): 1.1 g | KIDNEY_R ([…], time 14 day): 1.1 g | KIDNEY_TOTAL ([…], time 14 day): 2.2 g | KIDNEY_L ([…], time 28 day): 1.2 g | KIDNEY_R ([…], time 28 day): 1.2 g | KIDNEY_TOTAL ([…], time 28 day): 2.5 g | LIVER ([…], time 7 day): 13.7 g | LIVER ([…], time 14 day): 15.9 g | LIVER ([…], time 28 day): 20.8 g | A/G ([…], time 7 day): 1.6 | ALP ([…], time 7 day): 1583 IU/L | ALT ([…], time 7 day): 72.2 IU/L | AST ([…], time 7 day): 139.2 IU/L | BUN ([…], time 7 day): 16 mg/dL | CRE ([…], time 7 day): 0.4 mg/dL | Ca ([…], time 7 day): 10.6 mg/dL | Cl ([…], time 7 day): 104.4 meq/L | DBIL ([…], time 7 day): 0.074 mg/dL | GLC ([…], time 7 day): 186.2 mg/dL | IP ([…], time 7 day): 8.5 mg/dL | K ([…], time 7 day): 4.1 meq/L | LDH ([…], time 7 day): 305.4 IU/L | Na ([…], time 7 day): 140.6 meq/L | PL ([…], time 7 day): 129.2 mg/dL | RALB ([…], time 7 day): 3.3 g/dL | TBIL ([…], time 7 day): 0.1 mg/dL | TC ([…], time 7 day): 56 mg/dL | TG ([…], time 7 day): 44.4 mg/dL | TP ([…], time 7 day): 5.4 g/dL | gamma-GTP ([…], time 7 day): 1.4 IU/L | A/G ([…], time 14 day): 1.6 | ALP ([…], time 14 day): 1597.4 IU/L | ALT ([…], time 14 day): 149.4 IU/L | AST ([…], time 14 day): 238.6 IU/L | BUN ([…], time 14 day): 16.4 mg/dL | CRE ([…], time 14 day): 0.5 mg/dL | Ca ([…], time 14 day): 10.4 mg/dL | Cl ([…], time 14 day): 103.8 meq/L | DBIL ([…], time 14 day): 0.064 mg/dL | GLC ([…], time 14 day): 187.6 mg/dL | IP ([…], time 14 day): 7.5 mg/dL | K ([…], time 14 day): 3.9 meq/L | LDH ([…], time 14 day): 389.6 IU/L | Na ([…], time 14 day): 140.8 meq/L | PL ([…], time 14 day): 113 mg/dL | RALB ([…], time 14 day): 3.4 g/dL | TBIL ([…], time 14 day): 0.1 mg/dL | TC ([…], time 14 day): 51.6 mg/dL | TG ([…], time 14 day): 21 mg/dL | TP ([…], time 14 day): 5.7 g/dL | gamma-GTP ([…], time 14 day): 1.4 IU/L | A/G ([…], time 28 day): 1.3 | ALP ([…], time 28 day): 1255 IU/L | ALT ([…], time 28 day): 300.8 IU/L | AST ([…], time 28 day): 396.2 IU/L | BUN ([…], time 28 day): 17.8 mg/dL | CRE ([…], time 28 day): 0.5 mg/dL | Ca ([…], time 28 day): 10.6 mg/dL | Cl ([…], time 28 day): 103.4 meq/L | DBIL ([…], time 28 day): 0.092 mg/dL | GLC ([…], time 28 day): 174.2 mg/dL | IP ([…], time 28 day): 6.4 mg/dL | K ([…], time 28 day): 3.9 meq/L | LDH ([…], time 28 day): 534.6 IU/L | Na ([…], time 28 day): 141.6 meq/L | PL ([…], time 28 day): 103.6 mg/dL | RALB ([…], time 28 day): 3.4 g/dL | TBIL ([…], time 28 day): 0.2 mg/dL | TC ([…], time 28 day): 39.4 mg/dL | TG ([…], time 28 day): 20.8 mg/dL | TP ([…], time 28 day): 5.9 g/dL | gamma-GTP ([…], time 28 day): 1.2 IU/L
